From patent publication US6579556B2, “Ambient stable beverage” (Lipton, division of Conopco, Inc., priority 2000, dated 2003) come the findings set out here.

Holding throughout (format): cell-based
Assay [1] relates to bacteria, Gluconobacter sp. 222. The assay can be described thus: Bacteria experiments, growth after heat + pasteurisation adjunct. The settings on record: 0-100 ppm, growth measured visually at 14 days. The protocol: Rows of 30 ml tubes containing 10 ml soft drink, pH 3.4, were equilibrated at the required temperature for 7 minutes in a water bath, before inoculation with 10^4 cells/ml of the bacteria, Gluconobacter sp. 222. Tubes were held at temperature for 2 minutes before being cooled rapidly in cold water for 5 minutes. Tubes were then incubated for 14 days at 25° C. to allow surviving bacteria to grow out. At 14 days growth was measured visually.

Assay [2] has as its system yeast Saccharomyces cerevisiae X2180-1B. The assay can be described thus: Ready to Drink tea experiments, yeast growth after heat + pasteurisation adjunct. The conditions noted are these: 0-200 ppm, OD 600 nm at 14 days. The protocol: Rows of 30 ml tubes containing 10 ml RTD tea, pH 3.4, were equilibrated at the required temperature for 7 minutes in a water bath, before inoculation with 10^4 cells/ml of the yeast Saccharomyces cerevisiae […]-1B. Tubes were held at temperature for 2 minutes before being cooled rapidly in cold water for 5 minutes. Tubes were then incubated for 14 days at 25° C. to allow surviving yeasts to grow out. At 14 days growth was measured by optical density at 600 nm in x11 diluted samples. […] Rows of 30 ml tubes containing 10 ml RTD tea, pH 3.4, were equilibrated at the required temperature for 7 minutes in a water bath, before inoculation with 10^4 cells/ml of the yeast Saccharomyces cerevisiae […]-1B. Tubes were held at temperature for 2 minutes before being cooled rapidly in cold water for 5 minutes. Tubes were then incubated for 14 days at 25° C. to allow surviving yeasts to grow out. At 14 days growth was measured by optical density at 600 nm in x11 diluted samples. […] Rows of 30 ml tubes containing 10 ml RTD tea, pH 3.4, were equilibrated at the required temperature for 7 minutes in a water bath, before inoculation with 10^4 cells/ml of the yeast Saccharomyces cerevisiae […]-1B. Tubes were held at temperature for 2 minutes before being cooled rapidly in cold water for 5 minutes. Tubes were then incubated for 14 days at 25° C. to allow surviving yeasts to grow out. At 14 days growth was measured by optical density at 600 nm in x11 diluted samples. […] Rows of 30 ml tubes containing 10 ml RTD tea, pH 3.4, were equilibrated at the required temperature for 7 minutes in a water bath, before inoculation with 10^4 cells/ml of the yeast Saccharomyces cerevisiae […]-1B. Tubes were held at temperature for 2 minutes before being cooled rapidly in cold water for 5 minutes. Tubes were then incubated for 14 days at 25° C. to allow surviving yeasts to grow out. At 14 days growth was measured by optical density at 600 nm in x11 diluted samples. […] Rows of 30 ml tubes containing 10 ml RTD tea, pH 3.4, were equilibrated at the required temperature for 7 minutes in a water bath, before inoculation with 10^4 cells/ml of the yeast Saccharomyces cerevisiae […]-1B. Tubes were held at temperature for 2 minutes before being cooled rapidly in cold water for 5 minutes. Tubes were then incubated for 14 days at 25° C. to allow surviving yeasts to grow out. At 14 days growth was measured by optical density at 600 nm in x11 diluted samples. […] Rows of 30 ml tubes containing 10 ml RTD tea, pH 3.4, were equilibrated at the required temperature for 7 minutes in a water bath, before inoculation with 10^4 cells/ml of the yeast Saccharomyces cerevisiae […]-1B. Tubes were held at temperature for 2 minutes before being cooled rapidly in cold water for 5 minutes. Tubes were then incubated for 14 days at 25° C. to allow surviving yeasts to grow out. At 14 days growth was measured by optical density at 600 nm in x11 diluted samples. […] Rows of 30 ml tubes containing 10 ml RTD tea, pH 3.4, were equilibrated at the required temperature for 7 minutes in a water bath, before inoculation with 10^4 cells/ml of the yeast Saccharomyces cerevisiae […]-1B. Tubes were held at temperature for 2 minutes before being cooled rapidly in cold water for 5 minutes. Tubes were then incubated for 14 days at 25° C. to allow surviving yeasts to grow out. At 14 days growth was measured by optical density at 600 nm in x11 diluted samples. […] Rows of 30 ml tubes containing 10 ml RTD tea, pH 3.4, were equilibrated at the required temperature for 7 minutes in a water bath, before inoculation with 10^4 cells/ml of the yeast Saccharomyces cerevisiae […]-1B. Tubes were held at temperature for 2 minutes before being cooled rapidly in cold water for 5 minutes. Tubes were then incubated for 14 days at 25° C. to allow surviving yeasts to grow out. At 14 days growth was measured by optical density at […] in x11 diluted samples.

Assay [3] has the same test system. Put plainly: Fungicidal activity / MIC at 50° C. versus 30° C., yeast survival in YEPD broth pH 3.4. On the procedure: In the table the minimum inhibitory concentration (MIC) is given for each compound as well as the molecular weight (M.W.), the logPoct and a rating of its importance. […] The logPoct, that is the logarithm of the partition coefficient of the relevant compound in octanol and thus a measure of its […], was determined using […]™ software from the CHEMOFFICE ULRA ENHANCED 2000™ software package (version 5.5) that is commercially available from CambridgeSoft.
(§1) YEPD contained glucose, 20 g/l, peptone 20 g/l and yeast extract 10 g/l. Rows of 30 ml tubes containing 10 ml YEPD, pH 3.4, were equilibrated at the required temperature for 7 minutes in a water bath, before inoculation with 10^4 cells/ml of the yeast Saccharomyces cerevisiae X2180-1B. Tubes were held at temperature for 10 minutes before being cooled rapidly in cold water for 5 minutes. Tubes were then incubated for 48 hours at 25° C. to allow surviving yeasts to grow out, and form discrete colonies.
as §1, §1, §1

On to `CCCCCCCCCCOC(C)=O` [Decyl acetate], for which the “effect of heat+pasteurisation adjunct on bacteria” value in assay [1] (Ready to Drink tea or synthetic soft drink pH 3.4, 2 minutes at temperature) is on record as “remarkable combined synergistic effect”. For the same compound, in assay [1] (Ready to Drink tea or synthetic soft drink pH 3.4, low temperature), the “effect of pasteurisation adjunct at low temperature on growth” value is listed as “little effect”. Besides, the “effect of heat+pasteurisation adjunct on yeast growth” value in assay [2] (Ready to Drink tea 0.14% tea pH 3.4, held at temperature 2 minutes) is “remarkable combined synergistic effect”. Further, the “effect of pasteurisation adjunct at low temperature on yeast growth” value in assay [2] (Ready to Drink tea 0.14% tea pH 3.4, low temperature) is “little effect”. Further, in assay [3] (30° C.), the “fungicidal activity at 30° C.” value is “no fungicidal activity”. In addition, the “fungicidal activity when heated to 50° C.” value in assay [3] (50° C.) is listed as “significant fungicidal activity”. Also, the MIC in assay [3] (Saccharomyces cerevisiae, minimum inhibitory concentration, 50° C., read-out: MIC50) came out at 1000 µM. Further, the Importance entry in assay [3] (rating as pasteurisation adjunct) was “High (High effects compounds, most preferred, generally showed at least a 5 fold decrease in MIC, minimum inhibitory concentration at 50 °C compared with 30° C.)”.
